“And” between values parts separate entries of the source, which are not always exact repeats. Equal entries are not always repeated. Where two headings read alike, the source gives them in different places. Values belong to the molecule of their own block, whether it stands above or below them.
Experiments:
[1] = Organ biodistribution time course of Tc-CO2-DADS components in mice (Table 1); format: in vivo, Hal Cr female albino mice; settings: mouse, in vivo
Method: Organ biodistribution and acute toxicity studies were carried out in mice, blood disappearance and bile appearance rates were determined by sampling of bood or bile in rats, and renal excretion rates of the two Tc-2,3-bis(mercaptoacetamido)propanoic acid components, Tc-DTPA, and OIH were determined in rabbits because of greater ease of urine sampling. The HPLC-purified Tc-2,3-bis(mercaptoacetamido)propanoate components were used directly except for dilution as necessary. In general HPLC collected volumes were 1 to 1.5 ml and were not diluted for rabbit studies, were diluted 2- to 10-fold for rat studies and were diluted about 20-fold for mouse studies. In most cases determinations were made with simultaneous administration of OIH.
The time course of organ distribution was determined in groups of six Hal Cr female albino mice. They were injected with 0.10 ml (0.5 uCi) of the preparation. For comparison purposes, 0.2 uCi OIH was added to each injection. The mice were placed in metabolic cages for the collection of excreted urine. At indicated intervals after injection, the urethra was ligated and the mice killed with chloroform vapor. The organs were removed and counted in a dual channel counter with correction for I-131 crossover into the Tc-99m channel.

[2] = Blood disappearance rates in rats (FIG. 3); format: in vivo, male Sprague-Dawley rats; settings: rat, in vivo
Excerpt: These determinations were made in male Sprague-Dawley rats.

[3] = Plasma protein binding, ultrafiltration; format: in vitro ADME; settings: plasma, duplicate determinations, read-out: binding to plasma proteins (converted)
Method: Studies of protein binding were carried out in plasma using an ultrafiltration method described at J.Nucl.Med. 22, 258-263, 1981.

[4] = cited from earlier work
renal tubular transport [5] = assay: Tubular transport inhibition study with probenicid (Table 2); settings: mice; for Blood / Intestines / Kidneys / Liver / Urine (renal excretion): 10 min post injection; for Urine (renal excretion): 10 min
Method: (§1) A dose of 50 mg/kg of probenicid was given 10 minutes prior to injection of radiochemicals. OIH was injected simultaneously.
(§2) *Values are mean and S.E.M. percent injected dose at 10 min. post

renal tubular transport [6] = settings: mouse, in vivo
Method: as §1, §2

[7] = mouse, in vivo, 5 min; cited from earlier work
[8] = rat, in vivo; cited from earlier work
plasma proteins = settings: cited from earlier work
[9] = rat, in vivo, iv, 1.5 h; cited from earlier work
[10] = human, in vivo; cited from earlier work
[11] = probenicid treated (50 mg/kg, 10 min prior)

OIH Urine ([1]; 5 min): 42.02 percent injected dose
OIH Urine ([1]; 10 min): 64.94 percent injected dose
OIH Urine ([1]; 0.25 h): 78.24 percent injected dose
OIH Urine ([1]; 2 h): 82.43 percent injected dose
fraction unbound at 10 min ([3]; 10 minutes): 0.36
fraction unbound at 0.5 h ([3]; 30 minutes): 0.44
Blood (renal tubular transport [5]; control): 4.58 percent injected dose
Intestines (renal tubular transport [5]; control): 1.12 percent injected dose
Kidneys (renal tubular transport [5]; control): 2.83 percent injected dose
Liver (renal tubular transport [5]; control): 1.31 percent injected dose
decrease of renal excretion by probenicid treatment (renal tubular transport [5]; 10 minutes): 20%
Blood (renal tubular transport [5]; [11]): 7.49 percent injected dose
Intestines (renal tubular transport [5]; [11]): 2.18 percent injected dose
Kidneys (renal tubular transport [5]; [11]): 3.79 percent injected dose
Liver (renal tubular transport [5]; [11]): 2.68 percent injected dose
Molecule: O=C(O)CNC(=O)c1ccccc1[131I] [OIH, I-131 o-iodohippurate]
blood disappearance in words [2]: most rapid disappearance through 75 minutes
extraction efficiency ([4]; renal): about 67%
Urine (renal excretion) (renal tubular transport [5]; control): 64.94 percent injected dose and 65 percent injected dose
Urine (renal excretion) (renal tubular transport [5]; [11]): 52.62 percent injected dose and 52 percent injected dose

Blood (renal tubular transport [6]; 10 min): 1.85 percent injected dose
Intestines (renal tubular transport [6]; 10 min): 4.69 percent injected dose
Kidneys (renal tubular transport [6]; 10 min): 4.25 percent injected dose
Liver (renal tubular transport [6]; 10 min): 2.24 percent injected dose
Molecule: 1,2-Bis(mercaptoacetamido)ethane [Tc-DADS]
decrease in renal excretion with probenicid, in words (renal tubular transport [6]): decrease in renal excretion of Tc-DADS to a much greater extent than OIH
Kidneys [7]: 12.6 % of the dose
in the urine [7]: 28%
time at which radioactivity remaining in the blood was 2% [8]: 68 min
time at which radioactivity remaining in the blood was 5% [8]: 19 min
protein binding value (plasma proteins): 95%
biliary excretion of radioactivity in the absence of renal function [9]: 19%
distribution of radioactivity [10]: confined radioactivity to the vascular system rather than the extracellular space as with Tc-DTPA
effect of decreased renal function on renal excretion [10]: decreased renal function reduced renal excretion of Tc-DADS to a greater extent than OIH
hepatobiliary excretion [10]: hepatobiliary excretion became significant
renal retention ([4]; in vivo): no evidence of significant renal retention

— patent publication US4444690A, “Technetium chelates” (priority 1982, dated 1984)
